According to patent US20230416791A1, “METHOD TO PRODUCE BRANCHED-CHAIN POLYHYDROXYALKANOATES AND BRANCHED-CHAIN 3-HYDROXYACIDS FROM GLUCOSE” (Alliance for Sustainable Energy, LLC, priority 2022, published 2023):
Numbering of substitutions follows the chain as printed. In names and notes the source's numbering stands.

Legend:
[1] = test system: ΔmadB ΔfabH1 P. putida; test: Growth curves with straight-chain fatty acid supplementation (microplate reader); type: cell-based, Pseudomonas putida KT2440; details: fatty acid sodium salt at 100 μg/mL, modified M9 with glucose, 30° C.
Protocol: (§1) Microplate reader experiments. Microplate reader experiments were performed by inoculating seed cultures from glycerol stocks into 10 mL of LB Broth (Miller; Sigma-Aldrich) with appropriate antibiotics in a 125 mL flask and incubating overnight at 30° C. (P. putida) or 37° C. (E. coli) and 225 rpm. Overnight cultures were then used to inoculate a second seed culture into 10 mL of LB Broth (Miller; Sigma-Aldrich) with appropriate antibiotics in a 125 mL flask starting at an optical density of 0.2 measured at 600 nm (0D600) using a GENESYS™ 140 Visible Light Spectrophotometer (Thermo Scientific). The second seed cultures were incubated at 30° C. (P. putida) or 37° C. (E. coli) at 225 rpm for 2-4 hrs until an OD600 of approximately 2 was reached. The second seed cultures were centrifuged at 8,000 rpm for 3 min, the pellets were washed with 1× M9, minimal salts (Sigma-Aldrich) three times, and resuspended to an OD600=3.0. Cells (10 μL) were transferred to five replicate wells in a 100-well Honeycomb 2 plate (Growth Curves USA) containing 290 μL of growth medium, corresponding to initial OD600=0.1. E. coli strains were grown in LB Broth (Miller; Sigma-Aldrich) at 37° C. and supplemented with 50 μg/mL kanamycin and 0.1 mM isopropylthio-β-galactoside (IPTG; GoldBio) when appropriate. P. putida strains were grown in modified M9 minimal media containing 6.78 g/L Na2HPO4, 3 g/L KH2PO4, 1 g/L NH4C1, 0.5 g/L NaCl, 2 mM MgSO4, 100 μM CaCl2, and 2 g/L glucose at 30° C. For fatty acid supplementation experiments, sodium salts of a given fatty acid (Sigma-Aldrich) were added to a final concentration of 100 μg/mL. OD600 measurements were acquired every 15 min with a Bioscreen C Pro (Growth Curves USA) and plate was shaken continuously. Maximum specific growth rates were calculated using a spline model (https://github.com/scott-saunders/growth_curve_fitting).

[2] = test system: P. putida KT2440 ΔmadB ΔfabH1; test: Growth of P. putida ΔmadB ΔfabH1 supplemented with straight-chain fatty acids; type: cell-based, Pseudomonas putida KT2440; details: 100 μg/mL, modified M9 minimal medium, 30° C.
Protocol: as §1

[3] = test system: MadB; test: Transformation of non-EcAcpP substrate by MadB (HPLC / LC-MS detection); type: biochemical, Pseudomonas putida KT2440; details: 1 mM substrate, 5 μM MadB, HEPES pH 7.5, room temperature
Protocol: Transformation of non-EcAcpP substrate by MadB. […] The reaction contained 1 mM of the alternate substrate and 5 μM of MadB in HEPES (I=0.1 M) pH 7.5 supplemented with 10 mM MgCl2 and 1 mM TCEP. The reaction was incubated at room temperature with an intermittent agitation for −1 hour prior to being passed through a 0.2 μm filter and frozen until further analysis.
Detection of various CoA analytes in the samples were performed on an Agilent 1200 HPLC system (Agilent Technologies) equipped with an Agilent 6120 mass spectrometer detector (MS). Each sample and standard were injected at a volume of 2 μL on a Phenomenex Luna C18(2)-HST column 100A′, […], 2.0×100 mm column (Phenomenex). The column temperature was maintained at 45° C. and the buffers used to separate the analytes of interest was 0.1% formic acid in water (A)/0.1% formic acid in acetonitrile (B). A gradient program was used to separate the analytes of interest: (A)=100% and (B)=0% at time t=0; (A)=100% and (B)=0% at t=1 min; (A)=50% and (B)=50% at t=7.65 min; (A)=30% and (B)=70% at t=9.33 min; (A)=30% and (B)=70% at t=10.67 min; (A)=100% and (B)=0% at t=10.68 min; (A)=100% and (B)=0% at t=13 min. The flow rate was held constant at 0.50 mL/min resulting in a run time of 13 minutes. The MS system was setup in positive electrospray ionization mode with a gas temperature of 350° C., drying gas at 12 L/min, nebulizer pressure set to 35 psig, and a Vcap voltage of 3000v. A total of four different masses in SIM mode from the MS detector were used to determine the presence and or absence of each analyte of interest. […] One standard from each analyte was used to determine the elution order and retention times of the compounds.
Detection of malonic and acetic acid was performed on an Agilent 1290 HPLC system (Agilent Technologies) equipped with an Agilent G7117A diode array detector (DAD). NREL's laboratory analytical procedure “Determination of Structural Carbohydrates and Lignin in Biomass” (Sluiter et al., 2012) HPLC method was used to detect the analytes of interest as outlined below. […]

[4] = target: T1, Pseudomonas putida KT2440 MadB (PP_0262, malonyl-ACP decarboxylase), wild type (Pseudomonas putida, UniProt Q88R72); details: malonyl-CoA decarboxylation, ITC, 30° C., pH 7.5
T1 sequence (Q88R72 1-151): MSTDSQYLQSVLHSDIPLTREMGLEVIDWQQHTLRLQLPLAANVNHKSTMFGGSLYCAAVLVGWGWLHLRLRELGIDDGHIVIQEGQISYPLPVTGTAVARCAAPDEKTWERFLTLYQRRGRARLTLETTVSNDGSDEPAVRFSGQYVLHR

[5] = target: T2, Pseudomonas putida KT2440 MadB (PP_0262) variant His46Ala (H46A) (Pseudomonas putida, UniProt Q88R72, H46A); test: ITC steady-state kinetics of malonyl-CoA decarboxylation
T2 sequence (Q88R72 1-151 H46A): T1 sequence (Q88R72 1-151) with H46A
Source text: (§2) Kinetic determination using ITC.
(§3) Both variants were purified similarly to the wild-type MadB.

[6] = target: T3, Pseudomonas putida KT2440 MadB (PP_0262) variant Asn45Ala (N45A) (Pseudomonas putida, UniProt Q88R72, N45A); test: as above
T3 sequence (Q88R72 1-151 N45A): T1 sequence (Q88R72 1-151) with N45A
Source text: as §2, §3

[7] = substrate: CC(C)(COP(=O)(O)OP(=O)(O)OC[C@H]1O[C@@H](n2cnc3c(N)ncnc32)[C@H](O)[C@@H]1OP(=O)(O)O)[C@@H](O)C(=O)NCCC(=O)NCCSC(=O)CC(=O)O; test: purified protein, by the assay type; details: other: malonyl-CoA decarboxylation, ITC, 30° C., pH 7.5
[8] = malonyl-CoA, His46Ala vs wild-type
[9] = malonyl-CoA, Asn45Ala vs wild-type

CC(=O)O [C2]
effect on growth of ΔmadB ΔfabH1 [1]: had no effect on growth | effect of fatty acid supplementation on growth [2]: no effect on growth

CCCC(=O)O [C4]
effect on growth of ΔmadB ΔfabH1 [1]: inhibited | effect of fatty acid supplementation on growth [2]: inhibited

CCCCCC(=O)O [C6]
effect on growth of ΔmadB ΔfabH1 [1]: appeared to improve growth, albeit less significantly | effect of fatty acid supplementation on growth [2]: improve growth, albeit less significantly

CCCCCCCC(=O)O [C8]
effect on growth of ΔmadB ΔfabH1 [1]: dramatic improvement of growth | effect of fatty acid supplementation on growth [2]: dramatic improvement of growth

CCCCCCCCCC(=O)O [C10]
effect on growth of ΔmadB ΔfabH1 [1]: dramatic improvement of growth | effect of fatty acid supplementation on growth [2]: dramatic improvement of growth

O=C(O)CC(=O)O [malonate]
decarboxylation by MadB [3]: not

CC(C)(COP(=O)(O)OP(=O)(O)OC[C@H]1O[C@@H](n2cnc3c(N)ncnc32)[C@H](O)[C@@H]1OP(=O)(O)O)[C@@H](O)C(=O)NCCC(=O)NCCSC(=O)CC(=O)O [malonyl-CoA]
Kcat [4]: 1.4 ± 0.1 s⁻¹ | decarboxylation by MadB [3]: capable of decarboxylating | Kcat ([5]; malonyl-CoA decarboxylation, His46Ala, ITC, 30° C., pH 7.5): 0.45 ± 0.01 s⁻¹ | Michaelis constant relative to wild-type [5, 8]: about half | lower catalytic efficiency compared to the wild-type enzyme [5, 8]: 1.5 fold | Kcat ([6]; malonyl-CoA decarboxylation, Asn45Ala, ITC, 30° C., pH 7.5): 0.06 ± 0.01 s⁻¹ | Michaelis constant relative to wild-type [6, 9]: about half | lower catalytic efficiency compared to the wild-type enzyme [6, 9]: 13 fold

CC(C(=O)O)C(=O)SCCNC(=O)CCNC(=O)[C@H](O)C(C)(C)COP(=O)(O)OP(=O)(O)OC[C@H]1O[C@@H](n2cnc3c(N)ncnc32)[C@H](O)[C@@H]1OP(=O)(O)O (stereo partly shown) [methylmalonyl-CoA]
decarboxylation by MadB [3]: capable of decarboxylating

B1: Pseudomonas putida KT2440 MadB (PP_0262, malonyl-ACP decarboxylase), wild type (Pseudomonas putida KT2440) (protein)
chain: T1 sequence (Q88R72 1-151)
Km ([7]; wild-type MadB): 12 ± 1 mM | kcat ([7]; wild-type MadB): 1.4 s⁻¹ | kcat/Km ([7]; wild-type MadB): 120 M⁻¹ s⁻¹

B2: Pseudomonas putida KT2440 MadB (PP_0262) variant His46Ala (H46A) (Pseudomonas putida KT2440; H46A) (protein)
chain: T1 sequence (Q88R72 1-151) with H46A
Km ([7]; His46Ala): 5.7 ± 0.2 mM

B3: Pseudomonas putida KT2440 MadB (PP_0262) variant Asn45Ala (N45A) (Pseudomonas putida KT2440; N45A) (protein)
chain: T1 sequence (Q88R72 1-151) with N45A
Km ([7]; Asn45Ala): 6.9 ± 0.5 mM
